“And” between values parts separate entries of the source, which are not always exact repeats. Equal entries are not always repeated.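 Cells were grown in 96-well plates and exposed to each compound for 48 hours at five concentrations; endpoints were interpolated linearly between bracketing concentrations, or set to the highest concentration if not reached. GI50: concentration for 50% inhibition of growth. TGI: total growth inhibition.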 Starred links: 1 amine or outer side, 2 acyl side, 3 side chain; linkers in the order of their positions; H or OH if unused. Positions of bridges follow the written chain, without caps; N, C: chain ends. Non-standard residues stand in square brackets, D forms with d. Residues, ends and D or L forms follow the SMILES beside them. Chains are numbered I, II in the order given. Actinocin(9to1) = Cc1c2oc3c(C)ccc(C(=O)[*:1])c3nc-2c(C(=O)[*:2])c(N)c1=O; NMeY = CN[CH](Cc1ccc(O)cc1)C(=O)O; Sar = CNCC(=O)O
Tests used:
Test in all cases: DTP human tumour cell line panel, 48 h
786-0 renal = system: 786-0 renal
HCT-116 colon = system: HCT-116 colon
HL-60(TB) leukemia = system: HL-60(TB) leukemia
LOX IMVI melanoma = system: LOX IMVI melanoma
M14 melanoma = system: M14 melanoma
NCI-H522 lung = system: NCI-H522 lung
NCI/ADR-RES ovarian = system: NCI/ADR-RES ovarian
OVCAR-5 ovarian = system: OVCAR-5 ovarian
SNB-75 CNS = system: SNB-75 CNS
UACC-62 melanoma = system: UACC-62 melanoma

SMILES	TGI (786-0 renal) [µM]	TGI (HCT-116 colon) [µM]	TGI (HL-60(TB) leukemia) [µM]	TGI (LOX IMVI melanoma) [µM]	TGI (M14 melanoma)	TGI (NCI-H522 lung)	TGI (NCI/ADR-RES ovarian) [µM]	TGI (OVCAR-5 ovarian)	TGI (SNB-75 CNS)	TGI (UACC-62 melanoma)	GI50 (HCT-116 colon)	GI50 (HL-60(TB) leukemia) [µM]	GI50 (LOX IMVI melanoma)	GI50 (M14 melanoma)	GI50 (NCI/ADR-RES ovarian) [µM]	GI50 (OVCAR-5 ovarian)	GI50 (SNB-75 CNS)	GI50 (UACC-62 melanoma)
BrC1=C(Br)C2(SCCS2)[C@H]2C[C@@H]1c1ccccc12	> 100	> 100	> 100	> 100	> 100 µM	> 100 µM	> 100	> 100 µM	> 85.9 µM	> 100 µM								
CCO/C(O)=C(/C(=N)N1CCOCC1)C(=O)Nc1ccc(F)cc1	> 100	> 100	> 100	> 100	> 100 µM	> 100 µM	> 100	> 100 µM	> 100 µM	> 100 µM								
COC(=O)C1=C(C(=O)OC)N(c2ccc(OC)cc2[N+](=O)[O-])C(c2ccc(C)cc2)=CC1c1ccc(OC)cc1OC (centres undefined)	> 94	> 100	> 44.3	6.75	> 100 µM	57.5 µM	> 77.8	> 100 µM	> 87.7 µM	> 100 µM								
O=C(Nc1ccccc1)c1cc(S(=O)(=O)NC2=NC(c3ccccc3)c3cc(Cl)ccc3N2)c(SSc2cc(Cl)c(C(=O)Nc3ccccc3)cc2S(=O)(=O)NC2=NC(c3ccccc3)c3cc(Cl)ccc3N2)cc1Cl (centres undefined)	> 100	> 100	> 53.9	> 100	> 100 µM	> 100 µM	> 100	> 100 µM	> 100 µM	> 100 µM								
COC[C@@H](N=CC(C)(C)C)C(C)C	> 100	> 100	> 100	> 100	> 100 µM	> 100 µM	> 100	> 100 µM	> 100 µM	> 100 µM								
CN1C(=O)c2ccccc2OC12C=Cc1c(ccc3ccccc13)O2 (centres undefined)	25.7	14.2	17.6	22.9	17.1 µM	6.27 µM	6.79	27.4 µM	33.1 µM	> 47.1 µM								
N#CC1C(=S)NC(c2ccccc2)=CC12CCCCC2 (centres undefined)	> 100	62.1	52.1	40.7	84.9 µM	42.2 µM	> 100	> 100 µM	> 100 µM	42.7 µM								
Fc1ccc2c(c1)nc1n2C(c2c(Cl)cccc2Cl)SC1 (centres undefined)	29.5	18.3	62.3	28.2	29.9 µM	28.7 µM	27.7	28.9 µM	25.9 µM	26.2 µM								
C=CCc1cccc2cc(C(=O)NCc3ccccc3)c(=N)oc12	91.4	70.7	> 100	> 100	> 100 µM	44.2 µM	> 100	> 100 µM	> 100 µM	> 100 µM								
COC(=O)c1ccc(/C=C/c2cc(O)ccc2O)cc1	16.9	18.9	1.06	9.39	43 µM	0.356 µM	7.72	70.3 µM	68.5 µM	17.4 µM								
COc1cccc(C(=O)Oc2ccc(OS(=O)(=O)c3ccc(C)cc3)cc2)c1C#N	> 100	> 100	> 100	> 100	> 100 µM	> 100 µM	> 100	> 100 µM	> 100 µM	> 100 µM								
CC1(C)/C(=N\NC(N)=O)C2CCC1C2 (centres undefined)	> 100	> 100	> 100	> 100	> 100 µM	> 100 µM	> 100	> 100 µM	> 100 µM	> 100 µM								
O=c1[nH]nnc2c1sc1ncccc12	> 100	> 100	> 100	> 100	> 100 µM	> 100 µM	> 100	> 100 µM	> 100 µM	> 100 µM								
Cc1ccc(-n2cnc(C(=N)C#N)c2N)cc1	> 100	> 100	> 100	> 100	> 100 µM	> 100 µM	> 100	> 100 µM	> 100 µM	> 100 µM								
CCOC(=O)Nc1[nH]cc(-c2ccccc2)c1C#N	> 100	> 100	> 100	> 100	> 100 µM	> 100 µM	> 100	> 100 µM	> 100 µM	> 100 µM								
COc1cccc(C2c3cc4c(cc3OC(N3CCCCC3)C2C)OCO4)c1O (centres undefined)	26.2	19.9	5.92	41.7	22.6 µM	8.53 µM	> 100	57.7 µM	68.5 µM	28.2 µM								
O=C1C=CC(=O)c2c1ccc1c3ccccc3n(CCCCCn3c4ccccc4c4ccc5c(c43)C(=O)C=CC5=O)c21	14.3	25.7	3.23	35	39.3 µM	4.37 µM	> 64.9	> 78.1 µM	32.9 µM	71.8 µM								
Cc1ccc(C2SCC(=O)N2c2ccc(-n3c(-c4ccccc4)nc4ccccc4c3=O)cc2)cc1 (centres undefined)	74.1	23.1	64.4	48.5	69.2 µM	58.6 µM	63.1	> 100 µM	90.5 µM	51.5 µM								

SMILES	TGI (786-0 renal) [µM]	TGI (HCT-116 colon) [µM]	TGI (HL-60(TB) leukemia) [µM]	TGI (LOX IMVI melanoma) [µM]	TGI (M14 melanoma)	TGI (NCI-H522 lung)	TGI (NCI/ADR-RES ovarian) [µM]	TGI (OVCAR-5 ovarian)	TGI (SNB-75 CNS)	TGI (UACC-62 melanoma)	GI50 (HCT-116 colon)	GI50 (HL-60(TB) leukemia) [µM]	GI50 (LOX IMVI melanoma)	GI50 (M14 melanoma)	GI50 (NCI/ADR-RES ovarian) [µM]	GI50 (OVCAR-5 ovarian)	GI50 (SNB-75 CNS)	GI50 (UACC-62 melanoma)
COc1cc(OC)cc(Oc2nc3ccccc3nc2C(F)(F)F)c1	> 100	> 100	> 100	> 100	> 100 µM	> 100 µM	> 100	> 100 µM	> 100 µM	> 100 µM								
Cc1c(C)c2c(c(N)c1C#N)C(=O)N(NC(=O)c1ccccc1)C2=O	> 100	> 100	> 100	> 100	> 100 µM	> 100 µM	> 100	> 100 µM	> 100 µM	> 100 µM								
COc1cc(C2C3C=CC=C4CC=CC(=C43)C3CCC(=O)N32)cc(OC)c1OC (centres undefined)	> 100	> 100	> 100	> 100	> 100 µM	> 100 µM	69.8	> 100 µM	> 100 µM	> 100 µM								
O=C(/C=C/c1ccccc1)Oc1cccc(O)c1	> 100	31.8	41.2	> 100	> 100 µM	29.5 µM	> 100	> 100 µM	> 100 µM	> 100 µM								
O=C1Nc2cccc(Cl)c2/C1=C\c1c(Cl)nc2n1CCS2	> 100	> 100	> 100	> 100	> 100 µM	> 100 µM	> 100	> 100 µM	> 100 µM	> 100 µM								
CC1CC(OP(=O)(OCc2ccccc2)OCc2ccccc2)[C@@H](OCc2ccccc2)C(OCc2ccccc2)C1OCc1ccccc1 (some centres undefined)	> 100	> 100	> 100	> 100	> 100 µM	> 100 µM	> 100	> 100 µM	> 100 µM	> 100 µM								
Cc1ccnc2[nH]c(-c3ccc4ccccc4c3)cc(=O)c12	5.97	2.31	0.609	12.2	23.2 µM	3.42 µM	7.14	23.5 µM	4.6 µM	9 µM	0.428 µM	0.202						
Brc1ccc2[nH]cc(-c3csc(-c4c[nH]c5ccccc45)n3)c2c1	5.27	6.66	14.2	4.5	5.14 µM	3.53 µM	10.5	4.86 µM	23.9 µM	> 22.5 µM								
O=C1Sc2cc3ccccc3cc2C(=O)Sc2ccc(Br)cc21	5.63	16.3	> 100	3.97	14.4 µM	4.52 µM	15.6	25.5 µM	13.3 µM	10.5 µM								
Nc1c(C(=O)O)nnc2ccc(Cl)cc12	> 100	> 100	> 100	> 100	> 100 µM	> 100 µM	> 100	> 100 µM	> 100 µM	> 100 µM								
N#Cc1n[nH]n(-c2ccc(Br)cc2)c1=O	> 100	> 100	> 100	> 100	> 100 µM	> 100 µM	> 100	> 100 µM	> 100 µM	> 100 µM								
O=S(=O)(O)CCCc1cccc2ccccc12	> 100	> 100	> 100	> 100	> 100 µM	> 100 µM	> 100	> 100 µM	> 100 µM	> 100 µM								
O=[N+]([O-])c1ccc(CN(CCCl)OCCCl)cc1	> 100	> 100	> 100	> 100	> 100 µM	> 100 µM	> 100	> 100 µM	> 100 µM	> 100 µM								
CCn1c(-c2ccccc2)cs/c1=N\C(P(=O)(O)O)P(=O)(O)O	> 100	> 100	> 100	> 100	> 100 µM	> 100 µM	> 100	> 100 µM	> 100 µM	> 100 µM								
CN(C)c1ccc(/C=c2/c3ccccc3n3c2c2c([n+]3C)CCCC2)cc1	3.24	0.913	0.363	1.39	1.5 µM	0.687 µM	43.9	5.86 µM	0.265 µM	1.95 µM								
Cc1c2oc3c(C)ccc(C(=O)NC4C(=O)NC(C(C)C)C(=O)N5CCCC5C(=O)N(C)CC(=O)N(C)C(Cc5ccc(O)cc5)C(=O)OC4C)c3nc-2c(C(=O)NC2C(=O)NC(C(C)C)C(=O)N3CCCC3C(=O)N(C)CC(=O)N(C)C(Cc3ccc(O)cc3)C(=O)OC2C)c(N)c1=O (centres undefined) (I: TVP[Sar][NMeY] / II: TVP[Sar][NMeY]; ester I:1-I:C, II:1-II:C; linker I:N-II:N via Actinocin(9to1); configuration not given here)	> 1	> 1	0.0947	> 1	> 0.793 µM and 0.229 µM	0.11 µM and 0.031 µM	> 1	0.997 µM and > 0.443 µM	0.278 µM and 0.228 µM	0.157 µM and 0.0213 µM	0.00553 µM and 0.00136 µM		0.00436 µM and 0.000966 µM	0.175 µM and 0.0513 µM	0.494	0.199 µM and 0.0508 µM	0.0174 µM and 0.00316 µM	0.0235 µM and 0.0057 µM
CCOC1(OCC)C2C=CC1C(COS(=O)(=O)c1ccc(C)cc1)C2COS(=O)(=O)c1ccc(C)cc1 (centres undefined)	> 100	77.1	42.4	> 100	96.5 µM	57.1 µM	> 100	> 100 µM	> 100 µM	> 100 µM								
O=c1oc2ccccc2cc1-c1cc2ccccn2c1	> 100	> 100	> 100	> 100	> 100 µM	> 100 µM	> 100	> 100 µM	> 100 µM	> 100 µM								

Reference: PubChem BioAssay (NCI)
